Reference: patent US20260027121A1, “LIGAND ACTING ON ADENOSINE RECEPTORS AND COMPOSITION COMPRISING SAME FOR PREVENTION, ALLEVIATION, OR TREATMENT OF OBESITYS” (FUTURE MEDICINE CO., LTD., priority 2022, published 2026)

How the values were obtained:
[1] = test system: brown adipocytes; assay: MitoTracker staining; assay type: cell-based, mouse; details: 0.1 μM, FIG. 4B
Experimental: The cells were exposed to MitoTracker™ Red CMXRos (1:3000, Invitrogen, M7512) at 37° C. for 15 minutes to stain mitochondria, and then fixed in 4% paraformaldehyde (PFA, Sigma, 158127). Images were acquired with an LSM800 confocal microscope (Zeiss, Germany) and analyzed with Zen software (version 3.0).

[2] = test system: C57BL/6 male mice; assay: Indirect calorimetry (PhenoMaster); assay type: in vivo, mouse; details: 1 mg·kg-1day-1 intraperitoneally, 10 days
Experimental: 6-week-old C57BL/6 male mice and CIDEA reporter mice were used according to the approved protocols by Institutional Animal Care and Use Committees of Seoul National University (SNU-201107-1, SNU-201221-3) for in vivo experiments. The mice were housed under a 12 h-light/12 h-dark cycle condition with free access to a normal chow diet (NCD, Purina Lab, 38057, protein: 24.52% calories, carbohydrate: 63.07% calories, and fat: 12.41% calories) and water at 22±1° C. The mice were treated intraperitoneally with LJ-4378 (1 mg·kg-1day-1) dissolved in 0.2% DMSO (diluted in PBS) for 10 days.
(§1) Indirect calorimetry was performed using a PhenoMaster (TSE Systems) to measure expenditure (EE), VO2, VCO2, activity, and food intake. Body components were measured by nuclear magnetic resonance scanning Echo MRI-700 (Echo Medical Systems).

[3] = test system: HFD-fed mice; assay: Diet-induced obesity model (body weight, body composition, tissue weight, H&E); assay type: in vivo, mouse; details: 1 mg kg-1 once daily, 10 days
Experimental: For a diet-induced obesity model, mice were fed a high-fat diet (HFD)(Research Diets, D12492, protein: 20% kcal, carbohydrate: 20% kcal, and fat: 60% kcal) for 8 weeks. Then, LJ-4378 (1 mg kg-1) was injected into the mice once daily for 10 days.
as §1
Mice fed a HFD were used as a diet-induced obesity model. Body weight changes were monitored during treatment, and fat and body components of the mice were measured after treatment.
For histological analysis, adipose tissue was fixed in 10% formalin and then embedded in a paraffin block. Paraffin sections were stained with hematoxylin/eosin (H&E).

[4] = target: T1, A3AR (Homo sapiens, UniProt P0DMS8); assay: cAMP assay at A3AR using full agonist Cl-IB-MECA; assay type: cell-based; details: FIG. 1C
T1 sequence (P0DMS8 1-318): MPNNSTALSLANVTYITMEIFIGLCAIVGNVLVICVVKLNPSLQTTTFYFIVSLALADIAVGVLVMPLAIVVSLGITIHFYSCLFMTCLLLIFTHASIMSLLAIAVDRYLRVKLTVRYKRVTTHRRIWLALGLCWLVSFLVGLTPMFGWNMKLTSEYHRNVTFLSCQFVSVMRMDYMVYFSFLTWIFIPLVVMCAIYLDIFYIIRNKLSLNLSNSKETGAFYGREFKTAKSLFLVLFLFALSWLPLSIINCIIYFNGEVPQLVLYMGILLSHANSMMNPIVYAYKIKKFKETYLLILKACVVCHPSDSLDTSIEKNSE

CCCCC#Cc1nc(N)c2ncn([C@@H]3SC[C@@H](O)[C@H]3O)c2n1 [LJ-4378, 2-(6-amino-2-(hex-1-yn-1-yl)-9H-purin-9-yl)tetrahydrothiophene-3,4-diol]
mitochondrial membrane potential (MitoTracker staining), fold increase [1]: 2.12±0.06 fold
increase of energy expenditure [2]: 17.0%
increase of oxygen consumption [2]: 17.8%
reduction in body weight [3]: 8.24%
reduction in fat mass [3]: 24.18%
reduction in weight of gWAT [3]: 18.6%
reduction in weight of iWAT [3]: 30.1%
KB value at A3AR [4]: nM level
